The record followed here is patent US8318769B2, “Substituted sulfonamide compounds” (Gruenethal GmbH, priority 2008, dated 2012).

The first test deals with T1, bradykinin 1 receptor (B1R) of the rat (Rattus norvegicus, UniProt P97583).
T1 construct: expressed in transfected cells
T1 sequence (P97583 1-337): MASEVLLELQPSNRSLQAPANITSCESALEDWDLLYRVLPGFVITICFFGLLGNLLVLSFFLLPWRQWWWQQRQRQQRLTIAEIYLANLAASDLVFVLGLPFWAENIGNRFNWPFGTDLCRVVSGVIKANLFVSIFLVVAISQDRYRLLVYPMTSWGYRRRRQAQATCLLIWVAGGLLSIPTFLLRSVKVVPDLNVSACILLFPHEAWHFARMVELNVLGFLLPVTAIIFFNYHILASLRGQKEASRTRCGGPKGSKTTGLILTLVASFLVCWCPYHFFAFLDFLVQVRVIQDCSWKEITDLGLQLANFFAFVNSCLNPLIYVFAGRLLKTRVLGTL
As to the kind of experiment: FLIPR Ca2+ assay, B1R antagonism, rat. To be noted: 10 μM test substance; CHO K1 cells with rat B1R gene (rB1R cells); Des-Arg9-bradykinin at EC80; % inhibition compared with the maximum achievable inhibition. In kind it is cell-based. The method, then:
The agonistic or antagonistic action of substances can be quantified on the bradykinin 1 receptor (B1R) of the human and rat species with ectopically expressing cell lines (CHO K1 cells) and with the aid of a Ca^2+-sensitive dyestuff (Fluo-4) in a fluorescent imaging plate reader (FLIPR). The figure in % activation is based on the Ca^2+ signal after addition of Lys-Des-Arg^9-bradykinin (0.5 nM) or Des-Arg^9-bradykinin (100 nM). Antagonists lead to a suppression of the Ca^2+ inflow after addition of the agonist. % inhibition compared with the maximum achievable inhibition is stated.
The agonistic or antagonistic action of substances can be determined on the bradykinin 1 receptor (B1R) of the human and rat species with the following assay. In accordance with this assay, the Ca^2+ inflow through the channel is quantified with the aid of a Ca^2+-sensitive dyestuff (type Fluo-4, Molecular Probes Europe BV, Leiden, Holland) in a fluorescent imaging plate reader (FLIPR, Molecular Devices, Sunnyvale, USA).
Chinese hamster ovary cells (CHO K1 cells) transfected stably with the human B1R gene (hB1R cells) or the B1R gene of the rat (rB1R cells) are used. For functional studies, these cells are plated out on black 96-well plates with a clear base (BD Biosciences, Heidelberg, Germany or Greiner, Frickenhausen, Germany) in a density of 20,000-35,000 cells/well. The cells are left overnight at 37° C. and 5% CO2 in culture medium (hB1R cells: Nutrient Mixture Ham's F12, Gibco Invitrogen GmbH, Karlsruhe, Germany or DMEM, Sigma-Aldrich, Taufkirchen, Germany; rB1R cells: D-MEM/F12, Gibco Invitrogen GmbH, Karlsruhe, Germany) with 10 vol. % FBS (foetal bovine serum, Gibco Invitrogen GmbH, Karlsruhe, Germany or PAN Biotech GmbH, Aidenbach, Germany).
On the following day, the cells are loaded for 60 min at 37° C. with 2.13 μM Fluo-4 (Molecular Probes Europe BV, Leiden, Holland) in HBSS buffer (Hank's buffered saline solution, Gibco Invitrogen GmbH, Karlsruhe, Germany) with 2.5 mM probenecid (Sigma-Aldrich, Taufkirchen, Germany) and 10 mM HEPES (Sigma-Aldrich, Taufkirchen, Germany). The plates are then washed 2× with HBSS buffer, and HBSS buffer which additionally contains 0.1% BSA (bovine serum albumin; Sigma-Aldrich, Taufkirchen, Germany), 5.6 mM glucose and 0.05% gelatine (Merck KGaA, Darmstadt, Germany) is added. After a further incubation of 20 minutes at room temperature, the plates are inserted into the FLIPR for the Ca^2+ measurement.
Alternatively, the plates are washed with buffer A (15 mM HEPES, 80 mM NaCl, 5 mM KCl, 1.2 mM CaCl2, 0.7 mM MgSO4, 2 g/l glucose, 2.5 mM probenecid), buffer A is added and the plates are loaded with 2.5 μM Fluo-4 and 0.025% Pluronic F127 (Sigma-Aldrich, Taufkirchen, Germany). Thereafter, the cells are washed 2× with buffer A and incubated for 30 minutes with buffer A, which additionally contains 0.05% BSA and 0.05% gelatine, at room temperature and thereafter inserted into the FLIPR for the Ca^2+ measurement.
The Ca^2+-dependent fluorescence is measured here before and after addition of substances (λex=488 nm, λem=540 nm). Quantification is by measurement of the highest fluorescence intensity (FC, fluorescence counts) over time.
The FLIPR protocol consists of 2 additions of substance. Test substances (10 μM) are first pipetted on to the cells and the Ca^2+ inflow is compared with the control (hB1R: Lys-Des-Arg^9-bradykinin >=50 nM; rB1R: Des-Arg^9-bradykinin 10 μM). This gives the figure in % activation based on the Ca^2+ signal after addition of Lys-Des-Arg^9-bradykinin (>=50 nM) or Des-Arg^9-bradykinin (10 μM).
After incubation for 10-20 minutes, Lys-Des-Arg^9-bradykinin (hB1R) or Des-Arg^9-bradykinin (rB1R) in the concentration of the EC80 is applied and the inflow of Ca^2+ is likewise determined. Antagonists lead to a suppression of the Ca^2+ inflow. % inhibition compared with the maximum achievable inhibition is calculated. […]
With “1-[4-pyridin-3-yl-4-(2-pyrrolidin-1-yl-ethoxy)-piperidin-1-yl]-2-[[4-[[2-(trifluoromethyl)-phenyl]sulfonyl]-3,4-dihydro-2H-[1,4]benzoxazin-3-yl]-methoxy]-ethanone [Example 110]”, the “B1R antagonism, rat [10 μM] % inhibition” value is listed as 75%.

The same test, now with this note: CHO-K1, 10 μM test substance; CHO K1 cells with rat B1R gene (rB1R cells); Des-Arg9-bradykinin at EC80; % inhibition compared with the maximum achievable inhibition; read-out: B1R antagonism, rat [10 μM] % inhibition.
For orientation: inhibition means the relative decrease from the control value, in per cent. As to `CS(=O)(=O)N(CCOCC(=O)N1CCC(OCCN2CCCC2)(c2cccnc2)CC1)C(c1ccccc1)c1ccccc1` [Example 104, N-benzhydryl-N-[2-[2-oxo-2-[4-pyridin-3-yl-4-(2-pyrrolidin-1-yl-ethoxy)-piperidin-1-yl]-ethoxy]-ethyl]-methanesulfonic acid amide], the inhibition at 10 µM stood at 100%.
Take `O=C(CCCC1CCCCN1S(=O)(=O)c1ccc2ccccc2c1)N1CCC(OCCN2CCCC2)(c2cccc(F)c2)CC1` (centres unmarked) [Example 96, 1-[4-(3-fluorophenyl)-4-(2-pyrrolidin-1-yl-ethoxy)-piperidin-1-yl]-4-[1-(naphthalen-2-ylsulfonyl)-piperidin-2-yl]-butan-1-one]: the inhibition at 10 µM was 79%.
In the case of `COc1cc(C)c(S(=O)(=O)N(CCOCC(=O)N2CCC(OCCN3CCCC3)(c3ccc(C(F)(F)F)cc3)CC2)C2CC2)c(C)c1` [Example 67, N-cyclopropyl-4-methoxy-2,6-dimethyl-N-[2-[2-oxo-2-[4-(2-pyrrolidin-1-yl-ethoxy)-4-[4-(trifluoromethyl)-phenyl]-piperidin-1-yl]-ethoxy]-ethyl]-benzenesulfonic acid amide], the inhibition at 10 µM worked out at 98%.
As to `O=C(COCC1COc2ccccc2N1S(=O)(=O)c1ccccc1C(F)(F)F)N1CCC(OCCN2CCCC2)(c2cccc(F)c2)CC1` (centres unmarked) [Example 111, 1-[4-(3-fluorophenyl)-4-(2-pyrrolidin-1-yl-ethoxy)-piperidin-1-yl]-2-[[4-[[2-(trifluoromethyl)-phenyl]sulfonyl]-3,4-dihydro-2H-[1,4]benzoxazin-3-yl]-methoxy]-ethanone], the inhibition at 10 µM stood at 101%.
For `COc1cc(C)c(S(=O)(=O)N2CCCCC2CCCC(=O)N2CCC(OCCN3CCCC3)(c3ccc(C(F)(F)F)cc3)CC2)c(C)c1` (centres unmarked) [Example 79, 4-[1-[(4-methoxy-2,6-dimethyl-phenyl)sulfonyl]-piperidin-2-yl]-1-[4-(2-pyrrolidin-1-yl-ethoxy)-4-[4-(trifluoromethyl)-phenyl]-piperidin-1-yl]-butan-1-one], the inhibition at 10 µM is 100%.
For the molecule `O=C(CCCC1CCCCN1S(=O)(=O)c1cccc2ccccc12)N1CCC(OCCN2CCCC2)(c2ccncc2)CC1` (centres unmarked) [Example 94, 4-[1-(naphthalen-1-ylsulfonyl)-piperidin-2-yl]-1-[4-pyridin-4-yl-4-(2-pyrrolidin-1-yl-ethoxy)-piperidin-1-yl]-butan-1-one], the inhibition at 10 µM came to 59%.
With `COc1cc(C)c(S(=O)(=O)N2CCCCC2COCC(=O)N2CCC(OCCN3CCCC3)(c3ccc(C(F)(F)F)cc3)CC2)c(C)c1` (centres unmarked) [Example 65, 2-[[1-[(4-methoxy-2,6-dimethyl-phenyl)sulfonyl]-piperidin-2-yl]-methoxy]-1-[4-(2-pyrrolidin-1-yl-ethoxy)-4-[4-(trifluoromethyl)-phenyl]-piperidin-1-yl]-ethanone], the inhibition at 10 µM was found to be 96%.
Consider `CS(=O)(=O)N(CCOCC(=O)N1CCC(OCCN2CCCC2)(c2cccc(F)c2)CC1)C(c1ccccc1)c1ccccc1` [Example 105, N-benzhydryl-N-[2-[2-[4-(3-fluorophenyl)-4-(2-pyrrolidin-1-yl-ethoxy)-piperidin-1-yl]-2-oxo-ethoxy]-ethyl]-methanesulfonic acid amide], for which the inhibition at 10 µM was 99%.
Consider `COc1cc(C)c(S(=O)(=O)N2CCCCC2CCOCC(=O)N2CCC(OCCN3CCCC3)(c3cccnc3)CC2)c(C)c1` (centres unmarked) [Example 123, 2-[2-[1-[(4-methoxy-2,6-dimethyl-phenyl)sulfonyl]-piperidin-2-yl]-ethoxy]-1-[4-pyridin-3-yl-4-(2-pyrrolidin-1-yl-ethoxy)-piperidin-1-yl]-ethanone], for which the inhibition at 10 µM worked out at 96%.
As for `O=C(CCCC1CCCCN1S(=O)(=O)c1ccccc1C(F)(F)F)N1CCC(OCCN2CCCC2)(c2cccc(F)c2)CC1` (centres unmarked) [Example 86, 1-[4-(3-fluorophenyl)-4-(2-pyrrolidin-1-yl-ethoxy)-piperidin-1-yl]-4-[1-[[2-(trifluoromethyl)-phenyl]sulfonyl]-piperidin-2-yl]-butan-1-one], the inhibition at 10 µM is 102%.
Turning to `O=C(CCCC1CCCCN1S(=O)(=O)c1cccc2ccccc12)N1CCC(OCCN2CCCC2)(c2cccc(F)c2)CC1` (centres unmarked) [Example 93, 1-[4-(3-fluorophenyl)-4-(2-pyrrolidin-1-yl-ethoxy)-piperidin-1-yl]-4-[1-(naphthalen-1-ylsulfonyl)-piperidin-2-yl]-butan-1-one], the inhibition at 10 µM came out at 101%.
`COc1cc(C)c(S(=O)(=O)N2CCCCC2CCOCC(=O)N2CCC(OCCN3CCCC3)(c3cccc(F)c3)CC2)c(C)c1` (centres unmarked) [Example 125, 1-[4-(3-fluorophenyl)-4-(2-pyrrolidin-1-yl-ethoxy)-piperidin-1-yl]-2-[2-[1-[(4-methoxy-2,6-dimethyl-phenyl)sulfonyl]-piperidin-2-yl]-ethoxy]-ethanone]: the inhibition at 10 µM is 99%.
For `Cc1cccc(Cl)c1S(=O)(=O)N1CCCCC1COCC(=O)N1CCC(OCCN2CCCC2)(c2ccc(F)cc2)CC1` (centres unmarked) [Example 68, 2-[[1-[(2-chloro-6-methyl-phenyl)sulfonyl]-piperidin-2-yl]-methoxy]-1-[4-(4-fluorophenyl)-4-(2-pyrrolidin-1-yl-ethoxy)-piperidin-1-yl]-ethanone], the inhibition at 10 µM came out at 93%.
`O=C(CC(NS(=O)(=O)c1ccc2ccccc2c1)c1ccccc1)N1CCC(OCCN2CCCC2)(c2ccc(C(F)(F)F)cc2)CC1` (centres unmarked) [Example 77, N-[3-oxo-1-phenyl-3-[4-(2-pyrrolidin-1-yl-ethoxy)-4-[4-(trifluoromethyl)-phenyl]-piperidin-1-yl]-propyl]-naphthalene-2-sulfonic acid amide]: the inhibition at 10 µM came to 94%.
For `O=C(CCCC1CCCCN1S(=O)(=O)c1cccc2ccccc12)N1CCC(OCCN2CCCC2)(c2cccnc2)CC1` (centres unmarked) [Example 92, 4-[1-(naphthalen-1-ylsulfonyl)-piperidin-2-yl]-1-[4-pyridin-3-yl-4-(2-pyrrolidin-1-yl-ethoxy)-piperidin-1-yl]-butan-1-one], the inhibition at 10 µM was 95%.
In the case of `Cc1cccc(Cl)c1S(=O)(=O)N(CCOCC(=O)N1CCC(OCCN2CCCC2)(c2ccc(C(F)(F)F)cc2)CC1)C1CC1` [Example 71, 2-chloro-N-cyclopropyl-6-methyl-N-[2-[2-oxo-2-[4-(2-pyrrolidin-1-yl-ethoxy)-4-[4-(trifluoromethyl)-phenyl]-piperidin-1-yl]-ethoxy]-ethyl]-benzenesulfonic acid amide], the inhibition at 10 µM was 95%.
